According to PMC6533482, “Xanthatin inhibits STAT3 and NF‐κB signalling by covalently binding to JAK and IKK kinases” (Journal of Cellular and Molecular Medicine, 2019):
pIC50: −log10 of the molar value.

Key:
JAK2 [1] = target: T1, JAK2 (Homo sapiens, UniProt O60674); assay: in-gel fluorescence after click labelling of immunoprecipitated protein; assay type: binding
T1 construct: JAK2-FLAG immunoprecipitated from HEK293 cells

Tyk2 [2] = target: T2, Tyk2 (Homo sapiens, UniProt P29597); assay: click-chemistry pull-down from treated cells, competed by xanthatin; assay type: cell-based
T2 construct: endogenous, MDA-MB-231 cells
T2 sequence (P29597 whole entry): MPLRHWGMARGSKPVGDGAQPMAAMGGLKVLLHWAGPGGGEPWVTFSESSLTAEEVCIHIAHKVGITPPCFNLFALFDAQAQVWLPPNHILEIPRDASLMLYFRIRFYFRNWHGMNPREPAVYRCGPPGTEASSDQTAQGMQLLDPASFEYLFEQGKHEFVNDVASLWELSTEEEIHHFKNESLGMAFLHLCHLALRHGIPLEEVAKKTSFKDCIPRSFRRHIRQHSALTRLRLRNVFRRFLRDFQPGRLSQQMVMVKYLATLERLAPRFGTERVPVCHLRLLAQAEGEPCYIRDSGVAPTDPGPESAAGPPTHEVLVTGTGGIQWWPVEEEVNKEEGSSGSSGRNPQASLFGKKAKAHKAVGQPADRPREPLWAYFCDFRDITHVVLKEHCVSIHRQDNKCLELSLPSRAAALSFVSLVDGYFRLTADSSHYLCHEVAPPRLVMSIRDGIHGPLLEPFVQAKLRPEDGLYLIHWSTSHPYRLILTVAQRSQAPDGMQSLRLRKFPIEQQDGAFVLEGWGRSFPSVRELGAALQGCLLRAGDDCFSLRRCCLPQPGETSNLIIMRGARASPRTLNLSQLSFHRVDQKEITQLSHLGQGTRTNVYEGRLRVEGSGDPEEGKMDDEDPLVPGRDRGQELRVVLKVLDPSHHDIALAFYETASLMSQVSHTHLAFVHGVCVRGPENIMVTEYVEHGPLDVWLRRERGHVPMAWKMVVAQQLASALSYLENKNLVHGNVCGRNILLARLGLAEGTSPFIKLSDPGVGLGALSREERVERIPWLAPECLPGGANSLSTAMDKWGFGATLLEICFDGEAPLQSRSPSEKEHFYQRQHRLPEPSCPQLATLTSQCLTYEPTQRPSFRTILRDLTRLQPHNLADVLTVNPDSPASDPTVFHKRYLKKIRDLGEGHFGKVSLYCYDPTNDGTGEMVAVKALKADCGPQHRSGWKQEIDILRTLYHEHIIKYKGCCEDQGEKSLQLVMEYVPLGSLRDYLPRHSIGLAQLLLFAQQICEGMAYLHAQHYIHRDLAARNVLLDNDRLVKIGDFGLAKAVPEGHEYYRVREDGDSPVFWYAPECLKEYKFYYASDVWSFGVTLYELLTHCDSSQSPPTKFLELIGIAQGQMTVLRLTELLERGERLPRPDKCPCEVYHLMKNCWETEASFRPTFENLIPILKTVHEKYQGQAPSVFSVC

JAK1 [3] = target: T3, JAK1 (Homo sapiens, UniProt P23458); assay: as above; assay type: cell-based
T3 construct: endogenous, MDA-MB-231 cells
T3 sequence (P23458 whole entry): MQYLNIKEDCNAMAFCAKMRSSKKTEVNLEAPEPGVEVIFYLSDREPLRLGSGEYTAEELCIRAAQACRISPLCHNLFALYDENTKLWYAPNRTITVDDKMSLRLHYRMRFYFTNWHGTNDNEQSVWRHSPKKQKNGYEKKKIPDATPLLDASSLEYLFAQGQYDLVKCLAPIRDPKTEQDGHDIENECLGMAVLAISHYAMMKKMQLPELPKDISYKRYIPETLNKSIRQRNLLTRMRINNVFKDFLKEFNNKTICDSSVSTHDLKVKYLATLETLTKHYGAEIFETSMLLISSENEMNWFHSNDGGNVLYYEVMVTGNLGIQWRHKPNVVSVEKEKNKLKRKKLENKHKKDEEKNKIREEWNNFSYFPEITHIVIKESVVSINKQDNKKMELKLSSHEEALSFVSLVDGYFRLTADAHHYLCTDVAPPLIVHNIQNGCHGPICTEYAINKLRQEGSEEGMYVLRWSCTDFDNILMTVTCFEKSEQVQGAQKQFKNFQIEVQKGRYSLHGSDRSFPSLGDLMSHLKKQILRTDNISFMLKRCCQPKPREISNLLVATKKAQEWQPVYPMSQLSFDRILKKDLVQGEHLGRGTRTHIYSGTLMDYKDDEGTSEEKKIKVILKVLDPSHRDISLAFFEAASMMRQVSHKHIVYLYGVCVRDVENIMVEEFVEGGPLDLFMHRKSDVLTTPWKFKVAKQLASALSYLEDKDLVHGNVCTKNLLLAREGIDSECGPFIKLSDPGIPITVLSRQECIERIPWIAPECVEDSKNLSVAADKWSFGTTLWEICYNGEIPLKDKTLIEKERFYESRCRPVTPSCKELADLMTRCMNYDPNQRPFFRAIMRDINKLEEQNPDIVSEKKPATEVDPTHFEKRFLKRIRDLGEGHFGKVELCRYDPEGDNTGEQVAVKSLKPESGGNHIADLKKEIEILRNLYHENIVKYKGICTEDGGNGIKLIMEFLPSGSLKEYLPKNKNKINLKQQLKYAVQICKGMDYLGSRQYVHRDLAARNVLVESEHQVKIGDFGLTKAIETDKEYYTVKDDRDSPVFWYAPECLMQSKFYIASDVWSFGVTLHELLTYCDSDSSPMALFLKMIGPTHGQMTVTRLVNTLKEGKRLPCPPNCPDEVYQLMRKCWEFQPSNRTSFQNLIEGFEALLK

IKKα [4] = target: T4, IKKα (Homo sapiens, UniProt O15111); assay: as above; assay type: cell-based
T4 construct: gene CHUK; endogenous, MDA-MB-231 cells
T4 sequence (O15111 1-745): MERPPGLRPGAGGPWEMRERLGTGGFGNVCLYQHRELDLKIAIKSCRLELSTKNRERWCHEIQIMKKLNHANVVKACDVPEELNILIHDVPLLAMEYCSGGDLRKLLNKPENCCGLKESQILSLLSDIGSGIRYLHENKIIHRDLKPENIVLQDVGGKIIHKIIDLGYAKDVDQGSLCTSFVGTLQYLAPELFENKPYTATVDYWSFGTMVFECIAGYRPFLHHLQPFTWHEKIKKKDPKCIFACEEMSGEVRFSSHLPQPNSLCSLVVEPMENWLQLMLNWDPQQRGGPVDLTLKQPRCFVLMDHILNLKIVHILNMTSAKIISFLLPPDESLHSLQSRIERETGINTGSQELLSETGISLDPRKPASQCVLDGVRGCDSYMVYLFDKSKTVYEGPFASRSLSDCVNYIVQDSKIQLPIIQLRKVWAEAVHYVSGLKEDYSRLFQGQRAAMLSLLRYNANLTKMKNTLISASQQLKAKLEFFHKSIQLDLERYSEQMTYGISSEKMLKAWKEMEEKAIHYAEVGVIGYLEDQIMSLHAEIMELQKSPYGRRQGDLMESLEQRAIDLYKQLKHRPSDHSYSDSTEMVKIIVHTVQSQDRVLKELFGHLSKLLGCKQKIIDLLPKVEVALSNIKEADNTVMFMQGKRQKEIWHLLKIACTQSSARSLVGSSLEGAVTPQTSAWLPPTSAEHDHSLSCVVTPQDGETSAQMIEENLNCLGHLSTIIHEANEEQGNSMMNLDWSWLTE

IKKβ [5] = target: T5, IKKβ (Homo sapiens, UniProt O14920); assay: in-gel fluorescence after click labelling of immunoprecipitated protein; assay type: binding
T5 construct: gene IKBKB; IKKβ-FLAG immunoprecipitated from HEK293 cells
T5 sequence (O14920 1-756): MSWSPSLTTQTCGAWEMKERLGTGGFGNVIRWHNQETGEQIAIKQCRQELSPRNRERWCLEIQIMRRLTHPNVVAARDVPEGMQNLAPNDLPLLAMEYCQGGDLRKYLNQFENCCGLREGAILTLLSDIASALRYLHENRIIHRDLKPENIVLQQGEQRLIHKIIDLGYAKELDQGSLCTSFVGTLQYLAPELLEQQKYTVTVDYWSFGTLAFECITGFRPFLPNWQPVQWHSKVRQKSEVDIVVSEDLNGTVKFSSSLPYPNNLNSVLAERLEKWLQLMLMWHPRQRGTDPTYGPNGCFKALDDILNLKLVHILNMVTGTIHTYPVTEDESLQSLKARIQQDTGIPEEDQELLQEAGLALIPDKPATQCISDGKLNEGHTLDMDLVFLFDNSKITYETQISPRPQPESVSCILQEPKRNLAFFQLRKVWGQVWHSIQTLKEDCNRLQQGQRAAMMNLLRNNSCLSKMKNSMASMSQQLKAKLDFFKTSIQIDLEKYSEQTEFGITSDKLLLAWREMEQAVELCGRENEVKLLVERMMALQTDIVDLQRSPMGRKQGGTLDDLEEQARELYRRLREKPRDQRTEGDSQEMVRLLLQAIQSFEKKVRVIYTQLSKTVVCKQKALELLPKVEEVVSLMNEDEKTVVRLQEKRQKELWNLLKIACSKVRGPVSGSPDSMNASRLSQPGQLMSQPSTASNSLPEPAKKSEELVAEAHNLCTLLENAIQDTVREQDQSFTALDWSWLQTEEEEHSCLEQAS

Tyk2 [6] = target: T2, Tyk2; assay: competition of Alk-Xa pull-down in cells; assay type: cell-based
IKKα [7] = target: T4, IKKα; assay: competition of Alk-Xa pull-down in cells; assay type: cell-based
JAK1 [8] = target: T3, JAK1; assay: competition of Alk-Xa pull-down in cells; assay type: cell-based
IKKβ [9] = target: T5, IKKβ; assay: in vitro kinase assay with immunoprecipitated IKKβ; adducts confirmed by LC-MS/MS; assay type: biochemical
JAK2 [10] = target: T1, JAK2; assay: in vitro kinase assay with immunoprecipitated JAK2; adduct confirmed by LC-MS/MS; assay type: biochemical

T1 sequence (O60674 whole entry): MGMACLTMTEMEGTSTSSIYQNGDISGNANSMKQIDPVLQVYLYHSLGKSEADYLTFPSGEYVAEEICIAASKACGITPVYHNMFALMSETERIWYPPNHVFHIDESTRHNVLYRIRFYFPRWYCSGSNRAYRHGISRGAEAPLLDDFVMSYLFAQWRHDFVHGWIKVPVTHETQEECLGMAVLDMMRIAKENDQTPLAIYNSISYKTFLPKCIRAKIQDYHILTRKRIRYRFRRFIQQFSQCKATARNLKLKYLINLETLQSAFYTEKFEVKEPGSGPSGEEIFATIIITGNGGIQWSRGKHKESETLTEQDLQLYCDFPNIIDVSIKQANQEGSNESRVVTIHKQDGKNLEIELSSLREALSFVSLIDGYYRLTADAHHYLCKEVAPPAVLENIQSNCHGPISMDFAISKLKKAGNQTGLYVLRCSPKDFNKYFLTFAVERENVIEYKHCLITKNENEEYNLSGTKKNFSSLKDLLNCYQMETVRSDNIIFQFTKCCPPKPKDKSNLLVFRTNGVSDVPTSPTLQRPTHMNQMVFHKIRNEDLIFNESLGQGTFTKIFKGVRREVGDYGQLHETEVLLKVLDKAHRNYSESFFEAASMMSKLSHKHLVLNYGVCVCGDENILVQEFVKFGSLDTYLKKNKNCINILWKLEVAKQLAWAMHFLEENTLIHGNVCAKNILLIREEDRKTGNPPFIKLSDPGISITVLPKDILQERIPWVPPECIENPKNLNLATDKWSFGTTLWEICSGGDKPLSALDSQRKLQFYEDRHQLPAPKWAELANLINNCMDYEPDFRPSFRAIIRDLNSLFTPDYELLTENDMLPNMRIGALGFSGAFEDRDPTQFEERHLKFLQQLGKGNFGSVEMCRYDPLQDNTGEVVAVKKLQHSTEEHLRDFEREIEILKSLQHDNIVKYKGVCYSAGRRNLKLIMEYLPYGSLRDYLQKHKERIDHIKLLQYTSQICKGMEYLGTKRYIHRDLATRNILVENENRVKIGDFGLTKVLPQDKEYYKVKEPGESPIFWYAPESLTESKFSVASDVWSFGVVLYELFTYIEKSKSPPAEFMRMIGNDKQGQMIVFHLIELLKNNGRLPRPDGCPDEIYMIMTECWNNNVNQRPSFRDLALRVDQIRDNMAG

Row | pIC50 (IKKβ [9]) | pIC50 (JAK2 [10]) | Compound | in-gel fluorescence after click labelling of immunoprecipitated protein (JAK2 [1]) | click-chemistry pull-down from treated cells, competed by xanthatin (Tyk2 [2]) | click-chemistry pull-down from treated cells, competed by xanthatin (JAK1 [3]) | click-chemistry pull-down from treated cells, competed by xanthatin (IKKα [4]) | in-gel fluorescence after click labelling of immunoprecipitated protein (IKKβ [5]) | competition of Alk-Xa pull-down in cells (Tyk2 [6]) | competition of Alk-Xa pull-down in cells (IKKα [7]) | competition of Alk-Xa pull-down in cells (JAK1 [8])
1 |  |  | C#CCNC(=O)/C=C/C1=CC[C@@H]2C(=C)C(=O)O[C@H]2C[C@@H]1C [Alk-Xa, Alk‐Xa] | fluorescence intensity of JAK2 and IKKβ was proportional to the dosage of Alk‐Xa, indicating that Alk‐Xa covalently bound | JAK1, JAK2, Tyk2, IKKα and IKKβ were pulled down with the Alk‐Xa | JAK1, JAK2, Tyk2, IKKα and IKKβ were pulled down with the Alk‐Xa | JAK1, JAK2, Tyk2, IKKα and IKKβ were pulled down with the Alk‐Xa | fluorescence intensity of JAK2 and IKKβ was proportional to the dosage of Alk‐Xa, indicating that Alk‐Xa covalently bound |  |  | 
2 | 4.95 | 5.39 | C=C1C(=O)O[C@H]2C[C@H](C)C(/C=C/C(C)=O)=CC[C@H]12 [Xa, xanthatin] |  |  |  |  |  | the interactions could be competed away by excessive unlabelled xanthatin | the interactions could be competed away by excessive unlabelled xanthatin | the interactions could be competed away by excessive unlabelled xanthatin
